{"source": "patent US20050222200A1", "about": "“AMIDE DERIVATIVES AS ION CHANNEL LIGANDS AND PHARMACEUTICAL COMPOSITIONS AND METHODS OF USING THE SAME” (Renovis, Inc., priority 2003, published 2005)"}
{"target": "T1, VR1 (Homo sapiens, UniProt Q8NER1)", "T1 construct": "expressed in transfected cells; host or cells: 293 cells (\"293 neurons\" [sic])", "T1 sequence (Q8NER1 whole entry, species assumed)": "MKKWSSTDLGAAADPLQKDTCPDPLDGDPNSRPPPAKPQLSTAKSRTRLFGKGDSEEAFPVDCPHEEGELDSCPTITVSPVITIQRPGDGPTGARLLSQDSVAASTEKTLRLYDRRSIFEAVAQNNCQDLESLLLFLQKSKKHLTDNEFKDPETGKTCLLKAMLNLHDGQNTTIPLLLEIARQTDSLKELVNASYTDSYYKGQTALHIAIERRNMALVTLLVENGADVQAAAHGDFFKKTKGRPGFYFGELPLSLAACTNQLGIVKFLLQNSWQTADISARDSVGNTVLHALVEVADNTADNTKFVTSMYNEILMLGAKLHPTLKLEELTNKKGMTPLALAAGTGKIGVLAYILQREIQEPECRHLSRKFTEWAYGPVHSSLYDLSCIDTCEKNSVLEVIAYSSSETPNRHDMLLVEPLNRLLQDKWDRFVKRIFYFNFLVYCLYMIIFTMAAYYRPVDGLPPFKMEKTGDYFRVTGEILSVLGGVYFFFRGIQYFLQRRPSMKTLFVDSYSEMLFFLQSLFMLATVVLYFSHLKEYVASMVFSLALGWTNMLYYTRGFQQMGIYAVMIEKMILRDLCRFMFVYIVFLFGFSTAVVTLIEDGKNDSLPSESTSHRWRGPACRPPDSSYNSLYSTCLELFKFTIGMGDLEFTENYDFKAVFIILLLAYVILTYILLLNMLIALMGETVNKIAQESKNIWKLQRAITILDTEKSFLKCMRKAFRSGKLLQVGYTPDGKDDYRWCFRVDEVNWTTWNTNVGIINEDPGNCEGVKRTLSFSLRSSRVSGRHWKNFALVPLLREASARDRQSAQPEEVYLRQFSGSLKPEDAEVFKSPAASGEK", "experiment": "High throughput calcium imaging assay of VR1 antagonists (Fura2, Flex Station, 96 well); also: test concentration or dose not given here", "type": "cell-based", "conditions": "Table 1 activity class"}
{"smiles": "CCN(CC)c1ccc(NC(=O)c2ccc(/C=C/C(C)C)cc2)cc1", "note": "[Compound 130]", "inhibition of calcium ion influx induced by capsaicin stimulation": "+++ (compound exhibited 50-75% inhibition of calcium ion influx induced by capsaicin stimulation)"}
{"smiles": "COc1ccccc1NC(=O)c1ccc(/C=C/C(C)C)cc1", "note": "[Compound 132]", "inhibition of calcium ion influx induced by capsaicin stimulation": "+ (compound exhibited 0-25% inhibition of calcium ion influx induced by capsaicin stimulation)"}
{"smiles": "CC(C)/C=C/c1ccc(C(=O)Nc2ccccc2Cl)cc1", "note": "[Compound 136]", "inhibition of calcium ion influx induced by capsaicin stimulation": "+ (compound exhibited 0-25% inhibition of calcium ion influx induced by capsaicin stimulation)"}
{"smiles": "CC(C)/C=C/c1ccc(C(=O)NCC(C)C)cc1", "note": "[Compound 139]", "inhibition of calcium ion influx induced by capsaicin stimulation": "+ (compound exhibited 0-25% inhibition of calcium ion influx induced by capsaicin stimulation)"}
{"smiles": "COc1ccc(CNC(=O)c2ccc(/C=C/C(C)C)cc2)cc1OC", "note": "[Compound 142]", "inhibition of calcium ion influx induced by capsaicin stimulation": "+ (compound exhibited 0-25% inhibition of calcium ion influx induced by capsaicin stimulation)"}
{"smiles": "CC(C)/C=C/c1ccc(C(=O)NCc2cccc(F)c2)cc1", "note": "[Compound 143]", "inhibition of calcium ion influx induced by capsaicin stimulation": "+ (compound exhibited 0-25% inhibition of calcium ion influx induced by capsaicin stimulation)"}
{"smiles": "COc1ccc(NC(=O)c2ccc(/C=C/C(C)C)cc2)cc1Cl", "note": "[Compound 145]", "inhibition of calcium ion influx induced by capsaicin stimulation": "+ (compound exhibited 0-25% inhibition of calcium ion influx induced by capsaicin stimulation)"}
{"smiles": "CC(C)/C=C/c1ccc(C(=O)Nc2ccc(Cl)c(C(F)(F)F)c2)cc1", "note": "[Compound 148]", "inhibition of calcium ion influx induced by capsaicin stimulation": "+ (compound exhibited 0-25% inhibition of calcium ion influx induced by capsaicin stimulation)"}
{"smiles": "CC(C)/C=C/c1ccc(C(=O)Nc2cccc(C#N)c2)cc1", "note": "[Compound 150]", "inhibition of calcium ion influx induced by capsaicin stimulation": "++ (compound exhibited 25-50% inhibition of calcium ion influx induced by capsaicin stimulation)"}
{"smiles": "CC(C)/C=C/c1ccc(C(=O)Nc2ccccc2CCO)cc1", "note": "[Compound 151]", "inhibition of calcium ion influx induced by capsaicin stimulation": "+++ (compound exhibited 50-75% inhibition of calcium ion influx induced by capsaicin stimulation)"}
{"smiles": "CC(C)/C=C/c1ccc(C(=O)Nc2ccc(C(C)C)cc2)cc1", "note": "[Compound 153]", "inhibition of calcium ion influx induced by capsaicin stimulation": "++++ (compound exhibited 75% or greater inhibition of calcium ion influx induced by capsaicin stimulation)"}
{"smiles": "Cc1ccc(NC(=O)c2ccc(/C=C/C(C)C)cc2)c(C)c1", "note": "[Compound 156]", "inhibition of calcium ion influx induced by capsaicin stimulation": "+ (compound exhibited 0-25% inhibition of calcium ion influx induced by capsaicin stimulation)"}
{"smiles": "CC(C)/C=C/c1ccc(C(=O)Nc2ccc3[nH]ccc3c2)cc1", "note": "[Compound 158]", "inhibition of calcium ion influx induced by capsaicin stimulation": "++ (compound exhibited 25-50% inhibition of calcium ion influx induced by capsaicin stimulation)"}
{"smiles": "CCC(C)(C)NC(=O)c1ccc(/C=C/C(C)C)cc1", "note": "[Compound 164]", "inhibition of calcium ion influx induced by capsaicin stimulation": "+ (compound exhibited 0-25% inhibition of calcium ion influx induced by capsaicin stimulation)"}
{"smiles": "CC(C)/C=C/c1ccc(C(=O)Nc2ccc(Cl)nc2)cc1", "note": "[Compound 166]", "inhibition of calcium ion influx induced by capsaicin stimulation": "+ (compound exhibited 0-25% inhibition of calcium ion influx induced by capsaicin stimulation)"}
{"smiles": "CC(C)/C=C/c1ccc(C(=O)Nc2ccnc(Cl)c2)cc1", "note": "[Compound 168]", "inhibition of calcium ion influx induced by capsaicin stimulation": "+ (compound exhibited 0-25% inhibition of calcium ion influx induced by capsaicin stimulation)"}
{"smiles": "CC(C)/C=C/c1ccc(C(=O)Nc2ccc3c(c2)OCO3)cc1", "note": "[Compound 169]", "inhibition of calcium ion influx induced by capsaicin stimulation": "+++ (compound exhibited 50-75% inhibition of calcium ion influx induced by capsaicin stimulation)"}
{"smiles": "CC(C)/C=C/c1ccc(C(=O)Nc2ccc3ncccc3c2)cc1", "note": "[Compound 171]", "inhibition of calcium ion influx induced by capsaicin stimulation": "++ (compound exhibited 25-50% inhibition of calcium ion influx induced by capsaicin stimulation)"}
{"smiles": "CCn1c2ccccc2c2cc(NC(=O)c3ccc(/C=C/C(C)C)cc3)ccc21", "note": "[Compound 172]", "inhibition of calcium ion influx induced by capsaicin stimulation": "++ (compound exhibited 25-50% inhibition of calcium ion influx induced by capsaicin stimulation)"}
{"smiles": "CC(C)/C=C/c1ccc(C(=O)Nc2ccc3c(c2)Cc2ccccc2-3)cc1", "note": "[Compound 175]", "inhibition of calcium ion influx induced by capsaicin stimulation": "+ (compound exhibited 0-25% inhibition of calcium ion influx induced by capsaicin stimulation)"}
{"smiles": "CCC/C=C/c1ccc(C(=O)NC(C)C)cc1", "note": "[Compound 179]", "inhibition of calcium ion influx induced by capsaicin stimulation": "+ (compound exhibited 0-25% inhibition of calcium ion influx induced by capsaicin stimulation)"}
{"smiles": "CCC/C=C/c1ccc(C(=O)NC2CCCCC2)cc1", "note": "[Compound 181]", "inhibition of calcium ion influx induced by capsaicin stimulation": "+ (compound exhibited 0-25% inhibition of calcium ion influx induced by capsaicin stimulation)"}
{"smiles": "CCC/C=C/c1ccc(C(=O)NCc2ccco2)cc1", "note": "[Compound 183]", "inhibition of calcium ion influx induced by capsaicin stimulation": "+ (compound exhibited 0-25% inhibition of calcium ion influx induced by capsaicin stimulation)"}
{"smiles": "CCC/C=C/c1ccc(C(=O)NCc2ccc(C(C)C)cc2)cc1", "note": "[Compound 185]", "inhibition of calcium ion influx induced by capsaicin stimulation": "+ (compound exhibited 0-25% inhibition of calcium ion influx induced by capsaicin stimulation)"}
{"smiles": "CCC/C=C/c1ccc(C(=O)NCCCn2ccnc2)cc1", "note": "[Compound 190]", "inhibition of calcium ion influx induced by capsaicin stimulation": "+ (compound exhibited 0-25% inhibition of calcium ion influx induced by capsaicin stimulation)"}
{"smiles": "CCC/C=C/c1ccc(C(=O)NC(c2ccccc2)c2ccccc2)cc1", "note": "[Compound 191]", "inhibition of calcium ion influx induced by capsaicin stimulation": "+ (compound exhibited 0-25% inhibition of calcium ion influx induced by capsaicin stimulation)"}
{"smiles": "CCC/C=C/c1ccc(C(=O)NCCN2CCCC2)cc1", "note": "[Compound 192]", "inhibition of calcium ion influx induced by capsaicin stimulation": "+ (compound exhibited 0-25% inhibition of calcium ion influx induced by capsaicin stimulation)"}
{"smiles": "CCC/C=C/c1ccc(C(=O)NCCCCC)cc1", "note": "[Compound 193]", "inhibition of calcium ion influx induced by capsaicin stimulation": "++ (compound exhibited 25-50% inhibition of calcium ion influx induced by capsaicin stimulation)"}
{"smiles": "CCC/C=C/c1ccc(C(=O)NCCc2ccccc2Cl)cc1", "note": "[Compound 194]", "inhibition of calcium ion influx induced by capsaicin stimulation": "+ (compound exhibited 0-25% inhibition of calcium ion influx induced by capsaicin stimulation)"}
{"smiles": "CCC/C=C/c1ccc(C(=O)NCc2ccccc2)cc1", "note": "[Compound 196]", "inhibition of calcium ion influx induced by capsaicin stimulation": "+ (compound exhibited 0-25% inhibition of calcium ion influx induced by capsaicin stimulation)"}
{"smiles": "CCC/C=C/c1ccc(C(=O)NCCCC)cc1", "note": "[Compound 197]", "inhibition of calcium ion influx induced by capsaicin stimulation": "+ (compound exhibited 0-25% inhibition of calcium ion influx induced by capsaicin stimulation)"}
{"smiles": "CCC/C=C/c1ccc(C(=O)NCCC)cc1", "note": "[Compound 198]", "inhibition of calcium ion influx induced by capsaicin stimulation": "++ (compound exhibited 25-50% inhibition of calcium ion influx induced by capsaicin stimulation)"}
{"smiles": "CCC/C=C/c1ccc(C(=O)Nc2ccncc2)cc1", "note": "[Compound 202]", "inhibition of calcium ion influx induced by capsaicin stimulation": "+ (compound exhibited 0-25% inhibition of calcium ion influx induced by capsaicin stimulation)"}
{"smiles": "CCC/C=C/c1ccc(C(=O)Nc2cccnc2)cc1", "note": "[Compound 203]", "inhibition of calcium ion influx induced by capsaicin stimulation": "+ (compound exhibited 0-25% inhibition of calcium ion influx induced by capsaicin stimulation)"}
{"smiles": "CCC/C=C/c1ccc(C(=O)Nc2cc[nH]n2)cc1", "note": "[Compound 204]", "inhibition of calcium ion influx induced by capsaicin stimulation": "+ (compound exhibited 0-25% inhibition of calcium ion influx induced by capsaicin stimulation)"}
{"smiles": "CCC/C=C/c1ccc(C(=O)Nc2nccs2)cc1", "note": "[Compound 205]", "inhibition of calcium ion influx induced by capsaicin stimulation": "+ (compound exhibited 0-25% inhibition of calcium ion influx induced by capsaicin stimulation)"}
